{"source": "patent US8124655B2", "about": "“Use of LR-90 and LR-102 to overcome insulin resistance” (City of Hope, priority 2007, dated 2012)", "key": {"[1]": {"conditions": "described in U.S. Pat. No. 6,787,566; cited from earlier work"}, "[2]": {"test_system": "Zucker diabetic fatty rats (ZDF, fa/fa)", "experiment": "Pancreatic islet immunohistochemistry and PAMS staining (Example 2)", "assay_type": "in vivo, rat", "text": "FIG. 7. Immunohistochemical analysis and quantification of islet cells. ZDF GM fa/fa rats and lean control rats were fed with high fat diet for 30 weeks and received either nothing or LR-90 or LR-102 in their drinking water. Pancreatic sections from various groups of animals were stained with anti-insulin antibody or anti-glucagon antibody. A. Representative images with the overlay of the insulin (green) and glucagon (red staining). […] B. Insulin-positive β-cell-to-glucagon-ratio was also measured from these images.\nFIG. 8. Periodic acid methenamine silver (PAMS) staining of pancreatic tissues. Sections from cryopreserved pancreas of each group of animals on the study were stained with PAMS and examined under light microscopy.\nLR-90 at 50 mg/L of drinking water was given to a subgroup of ZDF rats after the rats developed spontaneous diabetes at 13 weeks of age. At 40 weeks of age, and before killing the animals, their weight was measured; HbA1c, plasma glucose, insulin, triglycerides, cholesterol, CRP and urinary albumin and creatinine concentrations were measured. After euthanizing all animals, organs such as the kidneys, eyeballs, liver, heart, aortae and pancreas were dissected and subjected to immunohistochemical staining, RT-PCR, Western blotting and microscopy."}, "[3]": {"test_system": "Zucker diabetic fatty (ZDF) rat", "experiment": "Renal function: urinary albumin and total protein excretion, kidney weights (Example 1)", "assay_type": "in vivo", "description": "(§1) All animal studies were carried out in compliance with policies outlined in The Guide for the Care and Handling of Laboratory Animals (NIH Publication No. 85-23) that have been approved by the City of Hope Animal Care Committee. Male ZDF (fa/fa) and male Zucker lean (+/+; ZL) rats were obtained at the age of 5 weeks from Charles River Laboratories (Wilmington, Mass., USA). Animals were maintained with free access to Purina 5008 rat chow (Purina Mills, St Louis, Mo., USA) and tap water. All animals were individually housed in a controlled room with a 12 h dark-light cycle. At the age of 13 weeks, the animals were divided into the following groups: (1) ZL rats (n=6); (2) ZDF rats without treatment (n=6); and (3) ZDF rats treated with LR-90 at 50 mg/l in their drinking water (ZDF90, n=6). The dose of LR-90 was chosen after previous experiments with type 1 diabetic nephropathy. Food, water intake, body weight and blood glucose levels were monitored periodically. Systolic blood pressure was measured by tail-cuff plethysmography (CODA2 Blood Pressure System; Kent Scientific, Torrington, Conn., USA). Animals were killed at the age of 40 weeks by over-anaesthetisation with isoflurane and cardiac puncture. Blood samples were collected from each animal and transferred accordingly into heparinised vacutainer tubes; they were later centrifuged (1,500×g for 10 min at 4° C.) for plasma isolation. The kidneys were removed immediately, rinsed in PBS and weighed, after which specimens were snap-frozen in liquid nitrogen or fixed in 10% (vol./vol.) neutral buffered formalin for further biochemical and histological analyses. Plasma glucose, lipids and Nε-(carboxymethyl)lysine-AGE Plasma glucose was measured using a glucose analyzer (2300 STAT; YSI, Yellowsprings, Ohio, USA). Total plasma triacylglycerol and cholesterol concentrations were quantified using the Vitros 250 Chemistry System (Johnson & Johnson, Rochester, N.Y., USA). Nε-(Carboxymethyl)lysine (CML)-AGE was liberated from plasma proteins by acid hydrolysis and then measured by ion-pair reversed-phase liquid chromatography/tandem mass spectrometry as described previously.\nRenal function was assessed by measuring urinary albumin and total protein excretion. Prior to killing, rats were housed in metabolism cages for 24 h urine collection. Urinary albumin was quantified using the Nephrat kit according to manufacturer's instructions. Total urinary protein was measured using a kit (DC Assay; Bio-Rad Laboratories, Hercules, Calif., USA)."}, "[4]": {"test_system": "Zucker diabetic fatty (ZDF) rat", "experiment": "Kidney lipid peroxidation (malondialdehyde, TBARS), Example 1", "assay_type": "in vivo", "conditions": "ZDF animals", "description": "To assess lipid peroxidation in renal cortical homogenates, malondialdehyde, an end-product of lipid peroxidation, was measured as thiobarbituric acid reactive substances by calorimetric reaction as described. Reaction was carried in the presence of EDTA and antioxidant butylated hydroxytoluene, and the absorbance was measured at 532 nm (UV-1601; Shimadzu Scientific Instruments, Columbia, Md., USA). Hydrolysed 1,1,3,3-tetramethoxypropane was used as standard [prepared by incubating 10 mmol/l tetramethoxypropane with 1% (vol./vol.) H2SO4 for 2 h at room temperature]. Results are expressed as nanomole malondialdehyde per milligram protein."}, "[5]": {"test_system": "Zucker diabetic fatty (ZDF) rat", "experiment": "Metabolic parameters of ZDF rats treated with LR-90 (Example 1)", "assay_type": "in vivo", "description": "As noted, previous studies have shown that LR-90, a new inhibitor of AGE formation, prevented the development of experimental type 1 diabetic nephropathy. In the present Example, the effects of LR-90 were examined in the Zucker diabetic fatty (ZDF) rat, a model of type 2 diabetes and metabolic syndrome, and the mechanisms by which it may protect against renal injury were investigated. In this Example, male ZDF rats were treated without or with LR-90 from age 13 to 40 weeks. Metabolic and kidney functions and renal histology were evaluated. AGE accumulation and the production of the receptor for AGE (AGER) were measured. Profibrotic growth factors, extracellular matrix proteins and intracellular signalling pathways associated with glomerular and tubular damage were also analysed. […] RenalAGE, AGER and lipid peroxidation were all attenuated by LR-90. […] This was associated with reduction in glomerulosclerosis and tubulointerstitial fibrosis, concomitant with marked inhibition of renal overproduction of TGF-β1, connective tissue growth factor, fibronectin and collagen IV.\nas §1"}, "[6]": {"conditions": "ZDF rats, LR-90 50 mg/l in drinking water, at 40 weeks of age, mean ± SEM"}}, "data": [{"compound": "CC(C)(Oc1ccc(NC(=O)Nc2ccc(Cc3ccc(NC(=O)Nc4ccc(OC(C)(C)C(=O)O)cc4)c(Cl)c3)cc2Cl)cc1)C(=O)O", "note": "[LR-90, methylene bis[4,4′-(2-chlorophenylureidophenoxyisobutyric acid)]]", "values": [{"measurement": "breaking AGE-protein cross-links", "setting": "[1]", "result": "active"}, {"measurement": "PAMS staining of pancreatic islets", "setting": "[2]; FIG. 8", "result": "amelioration"}, {"measurement": "number of undamaged insulin-secreting islet cells in the pancreas", "setting": "[2]; FIGS. 7 and 8", "result": "significantly higher number"}, {"measurement": "Mean Kidney Weights", "setting": "[3]; [6]", "result": "4.23 ± 0.27", "unit": "g"}, {"measurement": "Relative Kidney Weights", "setting": "[3]; [6]", "result": "12.23 ± 0.78", "unit": "g/kg"}, {"measurement": "Total Urinary Protein", "setting": "[3]; [6]", "result": "176.4 ± 43.3", "unit": "mg/24 h"}, {"measurement": "Urinary Albumin", "setting": "[3]; [6]", "result": "25.8 ± 4.8", "unit": "mg/24 h"}, {"measurement": "Urine Volume", "setting": "[3]; [6]", "result": "137 ± 24", "unit": "mL/day"}, {"measurement": "prevention of increase in total urinary protein", "setting": "[3]; vs untreated ZDF rats, p<0.01", "result": 67, "unit": "%"}, {"measurement": "prevention of increase in urinary albumin", "setting": "[3]; vs untreated ZDF rats, p<0.05", "result": 42, "unit": "%"}, {"measurement": "reduction of kidney lipid peroxidation", "setting": "[4]", "result": "~40", "unit": "%"}, {"measurement": "effect on blood pressure", "setting": "[5]; ZDF rats, Example 1", "result": "modest, but not statistically significant effects"}, {"measurement": "effect on hyperglycaemia", "setting": "[5]; ZDF rats, Example 1", "result": "modest, but not statistically significant effects"}, {"measurement": "Plasma Cholesterol", "setting": "[5]; [6]", "result": "6.3 ± 0.3", "unit": "mmol/L"}, {"measurement": "Plasma Triglycerides", "setting": "[5]; [6]", "result": "4.4 ± 0.6", "unit": "mmol/L"}, {"measurement": "Plasma glucose", "setting": "[5]; [6]", "result": "25.0 ± 2.3", "unit": "mmol/L"}, {"measurement": "Mean Systolic BP", "setting": "[5]; ZDF rats, LR-90 50 mg/l in drinking water, at 40 weeks of age, tail-cuff, mean ± SEM", "result": "144 ± 6", "unit": "mm Hg"}, {"measurement": "reduction of plasma cholesterol", "setting": "[5]; vs untreated ZDF rats, p<0.05", "result": "~30", "unit": "%"}, {"measurement": "reduction of plasma triacylglycerol", "setting": "[5]; vs untreated ZDF rats, p<0.05", "result": "~55", "unit": "%"}]}]}
